Data published in patent US4918193A, “Methods for preparing 3-[N-phenyl-acetylaminopiperidine]-2,6-dion” (priority 1989, dated 1990).
Entries after “also recorded” stand apart in the source; their conditions may differ. Where a name gives a salt, the structure may show the parent alone. Read-outs that look alike come from different tables or passages of the source.

What was measured:
[1] = test system: advanced neoplastic diseases; experiment: Phase I clinical studies, 500 mg capsules (Example 1); type: in vivo, human; conditions: 500 mg capsules daily
Procedure: The phase I clinical studies with 3-[N-phenylacetylaminopiperidine]-2,6-dion 500 mg capsules involved 42 patients diagnosed with 49 types of advanced neoplastic diseases. The formulation was administered daily for from 6 to 314 days. The highest dosage taken was 288.4 mg/kg/24 hours. […] Positive clinical response was obtained in 75% of 49 treated cases.

[2] = Acute toxicity in mice, intraperitoneal injection
[3] = test system: human neoplastic diseases; experiment: Treatment of various human neoplastic diseases (general clinical statement); type: in vivo
Procedure: Various human neoplastic diseases were treated with 3-[N-phenylacetylaminopiperidine]-2,6-dion or its degradation products.

[4] = Hydrolysis of the sodium salt upon standing; type: physicochemical
Procedure: Five thousand grams of 3-[N-phenylacetylaminopiperidine]-2,6-dion was pulverized in a grinder, then suspended in 44 liters of pyrogen-free water. Concentrated sodium hydroxide in pyrogen-free water was added stepwise and stirred until all the powder was dissolved. The pH of the mixture was 7.0. Activated charcoal (U.S.P.) was added and stirred for 45 minutes, and then filtered. The concentration of the filtrate was adjusted to 103 mg/ml with pyrogen free water. The filtrate was then processed according to standard U.S.P. procedure for large volume injections of single dose infusions.

[5] = test system: Rd/3 sarcoma; conditions: rats, Neish, Experientia, 27: 860 (1971), cited from earlier work

O=C1CCC(NC(=O)Cc2ccccc2)C(=O)N1 (stereo not shown) [3-[N-phenylacetylaminopiperidine]-2,6-dion]
best clinical effects observed in [1]: chronic myelocytic leukemia and chronic lymphocytic leukemia, adenocarcinoma of the prostate, carcinoma of the breast and glioma | desirable side effects [1]: decrease of plasma levels of triglycerides and cholesterol; also recorded: increase of white blood cell count, red blood cell count and platelet count; also recorded: improvement of blood clotting | adverse reactions ([1]; highest dosage 288.4 mg/kg/24 hours): minimal adverse reactions, including excessive gas, gastrointestinal bleeding (most likely not related to 3-[N-phenylacetylaminopiperidine]-2,6-dion but to primary disease), moderately increased blood pressure, skin rash, vertigo, hypokalemia, hypoglycemia and mild myelosuppression | Positive clinical response ([1]; of 49 treated cases, 6 to 314 days): 75% | autopsy and microscopic findings in animals which died ([2]; HA/ICR swiss mice, intraperitoneal): congestion of the liver and marked pulmonary edema | acute toxicity, overall ([2]; experimental animals): very low toxicity | observation of surviving animals ([2]; kept one week under close observation): normal activity | autopsy and microscopic examination of tissues of surviving animals ([2]; sacrificed after a week, versus control uninjected subjects): identical to those of control, uninjected subjects | usefulness / effectiveness in the treatment of human cancers ([3]; Applicant's clinical studies): effective to some extent in aiding the regression of tumors | regression of tumors associated with named human cancers ([3]; cancer of esophagus, breast, bladder, colon, lung, prostate, pancreas, uterine cervix, brain, bone and lung metastases, lymphatic lymphoma): with success in the regression of tumors

O=C1CCC(NC(=O)Cc2ccccc2)C(=O)N1 (stereo not shown) [3-[N-phenylacetylaminopiperidine]2,6-dion sodium salt]
basic hydrolysis upon standing [4]: undergoes basic hydrolysis to form the sodium salts of phenylacetyl glutamine and phenylacetyl isoglutamine

O=C(O)Cc1ccccc1 [sodium salt of phenylacetic acid]
effect on tumor growth, Rd/3 sarcoma [5]: failed to inhibit tumor growth | effect on tumor growth, Rd/3 sarcoma ([5]; listed as phenylacetic acid): some enhancement of tumor growth
